Data: ChEMBL document CHEMBL1201862, “PubChem BioAssay data set” (2004)
Calls of active or inactive are those of the source.

Tests used:
[1] = viability loss in MITF-independent A375 cells – cell-based, CellTiter-Glo luminescence, dry powder, set 7, counter-screen for MITF inhibitor project, dose response (AID 624490); format: functional; conditions: A-375
[2] = molecular target: T1, Microphthalmia-associated transcription factor (Homo sapiens, UniProt O75030); assay: reducers of TRPM1 reporter luminescence, concentration series – cell-based, SK-MEL-5, cherry-picked, set 3, MITF inhibitor project, dose response (AID 493073); format: functional;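 further: SK-MEL-5 melanoma cells with luciferase driven by the MITF target TRPM1 promoter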
T1 sequence (O75030 whole entry): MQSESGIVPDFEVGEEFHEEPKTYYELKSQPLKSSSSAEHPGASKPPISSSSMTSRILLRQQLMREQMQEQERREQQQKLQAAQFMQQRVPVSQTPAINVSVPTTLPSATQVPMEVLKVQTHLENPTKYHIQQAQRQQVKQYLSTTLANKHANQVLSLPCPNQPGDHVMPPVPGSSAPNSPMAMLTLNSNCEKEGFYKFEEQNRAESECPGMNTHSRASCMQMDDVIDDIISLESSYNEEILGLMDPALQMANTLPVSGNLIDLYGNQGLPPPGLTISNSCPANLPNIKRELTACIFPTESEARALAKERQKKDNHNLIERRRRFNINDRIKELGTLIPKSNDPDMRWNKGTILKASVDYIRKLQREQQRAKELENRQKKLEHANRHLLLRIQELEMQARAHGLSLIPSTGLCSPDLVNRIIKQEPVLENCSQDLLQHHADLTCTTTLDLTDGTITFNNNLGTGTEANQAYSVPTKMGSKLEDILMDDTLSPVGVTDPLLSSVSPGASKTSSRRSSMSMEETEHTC

[3] = viability loss in MITF-independent A375 cells – cell-based, CellTiter-Glo luminescence, dry powder, set 6, counter-screen for MITF inhibitor project, dose response (AID 624488); format: functional; conditions: A-375
[4] = cytotoxicity in melanoma parental cells – cell-based, CellTiter-Glo, dry powder, set 6, MITF inhibitor project, dose response (AID 624429); format: functional; conditions: SK-MEL-5
Orexin receptor type 2 = molecular target: T2, Orexin receptor type 2 (Homo sapiens, UniProt O43614); assay: Counterscreen assay for antagonists of the orexin 1 receptor (OX1R; HCRTR1): Fluorescence-based cell-based dose response assay for antagonists of the orexin 2 receptor (OX2R; HCRTR2), run by assay provider.; format: functional
T2 sequence (O43614 whole entry): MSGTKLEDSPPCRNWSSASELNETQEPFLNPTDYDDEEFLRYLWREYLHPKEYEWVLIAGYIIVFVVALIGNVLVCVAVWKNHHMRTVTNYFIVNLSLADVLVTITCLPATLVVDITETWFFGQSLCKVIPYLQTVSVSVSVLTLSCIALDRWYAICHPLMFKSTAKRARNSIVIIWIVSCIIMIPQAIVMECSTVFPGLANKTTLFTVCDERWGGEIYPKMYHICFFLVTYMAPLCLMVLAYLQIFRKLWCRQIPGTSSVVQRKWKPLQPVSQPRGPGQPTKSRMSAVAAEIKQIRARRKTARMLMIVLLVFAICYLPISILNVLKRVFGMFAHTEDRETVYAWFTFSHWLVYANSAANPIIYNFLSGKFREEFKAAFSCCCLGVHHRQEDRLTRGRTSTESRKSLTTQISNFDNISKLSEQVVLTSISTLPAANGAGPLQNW

[5] = viability of PTEN-deleted HCT116 cells – cell-based, HCT116 PTEN knockout, dose response (AID 1047); format: functional;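 further: HCT116 colon tumor cells with PTEN knocked out; cells exposed to compound for 60 hours before readout; potency for loss of cell viability measured by luminescence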
[6] = viability loss of HPDE-C7K cells – cell-based, fluorescence, HTS, primary screen (AID 431); format: functional; conditions: Homo sapiens
Insulin receptor = Insulin receptor (Homo sapiens, UniProt P06213); format: functional;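 further: insulin receptor kinase tested as one member of a kinome-wide kinase panel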
Sequence of Insulin receptor (P06213 28-758 limits assumed): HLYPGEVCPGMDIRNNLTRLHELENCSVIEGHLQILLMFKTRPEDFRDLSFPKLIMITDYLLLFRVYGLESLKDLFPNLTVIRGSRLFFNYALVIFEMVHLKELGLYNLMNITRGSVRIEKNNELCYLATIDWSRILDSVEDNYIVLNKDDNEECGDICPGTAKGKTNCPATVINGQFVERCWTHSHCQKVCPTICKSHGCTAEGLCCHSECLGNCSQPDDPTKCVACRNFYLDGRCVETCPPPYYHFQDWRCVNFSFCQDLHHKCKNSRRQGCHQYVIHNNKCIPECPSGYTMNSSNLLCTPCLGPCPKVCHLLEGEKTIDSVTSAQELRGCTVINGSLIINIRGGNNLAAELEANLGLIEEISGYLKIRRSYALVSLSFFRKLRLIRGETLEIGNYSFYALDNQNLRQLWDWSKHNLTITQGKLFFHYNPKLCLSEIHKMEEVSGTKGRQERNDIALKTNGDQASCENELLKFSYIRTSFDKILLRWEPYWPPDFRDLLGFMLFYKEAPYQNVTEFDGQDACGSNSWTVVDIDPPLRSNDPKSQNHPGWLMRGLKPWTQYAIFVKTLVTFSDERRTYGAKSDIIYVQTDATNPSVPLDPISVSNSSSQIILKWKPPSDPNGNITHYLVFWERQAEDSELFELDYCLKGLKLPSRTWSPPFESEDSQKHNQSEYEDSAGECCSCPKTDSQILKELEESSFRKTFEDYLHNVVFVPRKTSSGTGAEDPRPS
Sequence of Insulin receptor (P06213 763-1382 limits assumed): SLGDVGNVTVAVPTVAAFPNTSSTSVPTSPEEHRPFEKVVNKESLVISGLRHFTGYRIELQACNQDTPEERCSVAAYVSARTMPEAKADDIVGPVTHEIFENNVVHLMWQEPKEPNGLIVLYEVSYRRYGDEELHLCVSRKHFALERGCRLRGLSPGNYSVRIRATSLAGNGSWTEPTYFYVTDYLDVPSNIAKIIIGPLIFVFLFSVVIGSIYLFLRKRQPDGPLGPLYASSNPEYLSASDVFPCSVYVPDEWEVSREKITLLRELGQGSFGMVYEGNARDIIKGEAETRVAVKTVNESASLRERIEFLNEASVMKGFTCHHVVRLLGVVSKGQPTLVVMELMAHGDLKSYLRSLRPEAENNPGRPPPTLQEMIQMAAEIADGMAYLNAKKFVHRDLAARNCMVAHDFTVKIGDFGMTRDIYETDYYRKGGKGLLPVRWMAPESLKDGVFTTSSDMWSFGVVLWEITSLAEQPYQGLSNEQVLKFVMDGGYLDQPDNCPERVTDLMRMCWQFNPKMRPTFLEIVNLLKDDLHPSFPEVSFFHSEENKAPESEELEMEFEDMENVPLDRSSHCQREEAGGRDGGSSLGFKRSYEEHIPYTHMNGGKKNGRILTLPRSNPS

[7] = molecular target: Tyrosine-protein kinase JAK3 (Homo sapiens, UniProt P52333); format: functional
[8] = molecular target: BDNF/NT-3 growth factors receptor (Homo sapiens, UniProt Q16620); format: functional;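 further: NTRK2 measured as one member of a broad kinome-wide kinase profiling panel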
SRSF protein kinase 1 = SRSF protein kinase 1 (Homo sapiens, UniProt Q96SB4); format: functional;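 further: measured as one member of a kinome-wide kinase profiling panel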
Sequence of SRSF protein kinase 1 (Q96SB4 whole entry, canonical isoform): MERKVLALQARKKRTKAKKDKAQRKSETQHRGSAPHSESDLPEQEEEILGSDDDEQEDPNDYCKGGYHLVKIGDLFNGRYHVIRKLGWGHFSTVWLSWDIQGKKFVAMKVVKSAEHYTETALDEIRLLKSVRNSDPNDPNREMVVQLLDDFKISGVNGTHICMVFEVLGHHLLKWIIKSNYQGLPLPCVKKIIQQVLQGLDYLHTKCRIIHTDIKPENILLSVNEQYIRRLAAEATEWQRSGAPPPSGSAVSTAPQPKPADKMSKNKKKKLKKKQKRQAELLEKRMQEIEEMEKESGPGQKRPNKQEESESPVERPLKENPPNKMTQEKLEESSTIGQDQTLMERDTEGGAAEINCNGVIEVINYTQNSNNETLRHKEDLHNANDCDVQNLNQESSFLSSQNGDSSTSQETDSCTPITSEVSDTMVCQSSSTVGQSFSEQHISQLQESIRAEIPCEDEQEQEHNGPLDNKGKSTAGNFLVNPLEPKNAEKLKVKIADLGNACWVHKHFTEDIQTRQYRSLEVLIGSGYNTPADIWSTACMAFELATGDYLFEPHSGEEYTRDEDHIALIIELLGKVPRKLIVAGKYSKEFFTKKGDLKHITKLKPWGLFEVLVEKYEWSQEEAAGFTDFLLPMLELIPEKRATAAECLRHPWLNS

[9] = molecular target: Casein kinase I isoform gamma-1 (Homo sapiens, UniProt Q9HCP0); format: functional;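 further: measured as the CSNK1G1 member of a kinome profiling panel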
[10] = molecular target: Fibroblast growth factor receptor 1 (Homo sapiens, UniProt P11362); format: functional
[11] = molecular target: Serine/threonine-protein kinase TAO1 (Homo sapiens, UniProt Q7L7X3); format: functional
Sequence of Serine/threonine-protein kinase TAO1 (Q7L7X3 whole entry): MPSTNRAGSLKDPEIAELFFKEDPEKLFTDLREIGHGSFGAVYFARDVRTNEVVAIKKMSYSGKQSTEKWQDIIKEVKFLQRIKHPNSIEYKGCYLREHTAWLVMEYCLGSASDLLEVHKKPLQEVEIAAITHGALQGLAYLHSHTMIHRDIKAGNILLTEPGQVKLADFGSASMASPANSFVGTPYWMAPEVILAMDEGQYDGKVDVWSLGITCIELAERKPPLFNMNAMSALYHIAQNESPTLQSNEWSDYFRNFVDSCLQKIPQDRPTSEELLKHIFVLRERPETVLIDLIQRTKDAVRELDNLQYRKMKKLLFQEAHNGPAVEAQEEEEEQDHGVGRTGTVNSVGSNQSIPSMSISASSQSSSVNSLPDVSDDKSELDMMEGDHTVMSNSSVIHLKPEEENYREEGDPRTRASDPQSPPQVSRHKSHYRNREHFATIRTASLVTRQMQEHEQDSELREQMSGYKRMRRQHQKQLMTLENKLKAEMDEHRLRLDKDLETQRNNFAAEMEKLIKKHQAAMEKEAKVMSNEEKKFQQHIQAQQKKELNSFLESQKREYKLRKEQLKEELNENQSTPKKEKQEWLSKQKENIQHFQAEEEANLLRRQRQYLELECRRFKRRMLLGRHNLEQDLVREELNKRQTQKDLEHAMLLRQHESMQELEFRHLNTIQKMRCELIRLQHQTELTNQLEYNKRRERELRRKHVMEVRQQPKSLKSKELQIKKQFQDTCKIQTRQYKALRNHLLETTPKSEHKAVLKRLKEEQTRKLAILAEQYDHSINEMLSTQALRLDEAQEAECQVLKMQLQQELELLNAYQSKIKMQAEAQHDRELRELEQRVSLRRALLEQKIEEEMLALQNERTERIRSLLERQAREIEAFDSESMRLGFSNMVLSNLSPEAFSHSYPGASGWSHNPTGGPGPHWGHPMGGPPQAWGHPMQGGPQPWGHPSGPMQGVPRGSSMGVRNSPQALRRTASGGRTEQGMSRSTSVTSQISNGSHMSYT

[12] = molecular target: Tyrosine-protein kinase JAK2 (Homo sapiens, UniProt O60674); format: functional;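 further: JAK2 tested as one member of a kinase panel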
[13] = molecular target: Serine/threonine-protein kinase D3 (Homo sapiens, UniProt O94806); format: functional;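 further: determined within a kinase panel screen, with PRKCN as the panel member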
Focal adhesion kinase 1 = Focal adhesion kinase 1 (Homo sapiens, UniProt Q05397); format: functional;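 further: measured as one member of a kinome panel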
[14] = molecular target: Mitogen-activated protein kinase kinase kinase kinase 5 (Homo sapiens, UniProt Q9Y4K4); format: functional;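 further: measured as one member of a kinome-spanning kinase panel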
Sequence of Mitogen-activated protein kinase kinase kinase kinase 5 (Q9Y4K4 whole entry): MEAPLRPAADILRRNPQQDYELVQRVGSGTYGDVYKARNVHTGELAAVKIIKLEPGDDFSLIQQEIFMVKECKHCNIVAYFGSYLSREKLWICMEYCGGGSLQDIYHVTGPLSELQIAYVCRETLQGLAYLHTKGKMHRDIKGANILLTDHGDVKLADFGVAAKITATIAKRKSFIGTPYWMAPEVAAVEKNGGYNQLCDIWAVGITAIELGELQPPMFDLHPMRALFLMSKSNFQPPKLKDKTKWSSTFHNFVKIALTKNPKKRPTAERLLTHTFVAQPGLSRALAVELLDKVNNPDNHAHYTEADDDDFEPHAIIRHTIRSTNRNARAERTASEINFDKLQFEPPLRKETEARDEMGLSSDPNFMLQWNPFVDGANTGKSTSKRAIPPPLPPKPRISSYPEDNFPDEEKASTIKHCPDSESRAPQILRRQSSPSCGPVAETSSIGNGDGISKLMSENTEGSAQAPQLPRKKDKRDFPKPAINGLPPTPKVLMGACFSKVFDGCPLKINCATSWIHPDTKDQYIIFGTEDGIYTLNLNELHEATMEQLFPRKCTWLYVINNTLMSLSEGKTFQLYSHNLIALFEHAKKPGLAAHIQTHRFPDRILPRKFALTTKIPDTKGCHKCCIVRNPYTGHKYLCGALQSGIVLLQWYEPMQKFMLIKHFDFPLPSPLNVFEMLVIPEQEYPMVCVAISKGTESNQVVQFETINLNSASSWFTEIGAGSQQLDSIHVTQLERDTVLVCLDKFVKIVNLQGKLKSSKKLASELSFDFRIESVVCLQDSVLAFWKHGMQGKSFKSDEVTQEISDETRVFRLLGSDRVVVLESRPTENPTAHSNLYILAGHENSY

[15] = molecular target: Serine/threonine-protein kinase pim-3 (Homo sapiens, UniProt Q86V86); format: functional;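 further: value obtained as one member of a broad kinase panel profiling effort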
[16] = molecular target: Casein kinase I isoform alpha (Homo sapiens, UniProt P48729); format: functional
[17] = molecular target: Serine/threonine-protein kinase PLK1 (Homo sapiens, UniProt P53350); format: functional;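 further: PLK1 measured as one member of a kinome-wide profiling panel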
[18] = molecular target: ALK tyrosine kinase receptor (Homo sapiens, UniProt Q9UM73); format: functional;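 further: ALK tested as one member of a kinase panel screen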
[19] = molecular target: Mitogen-activated protein kinase kinase kinase kinase 2 (Homo sapiens, UniProt Q12851); format: functional;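 further: measured as one member of a kinome-wide kinase panel, with MAP4K2 as the panel entry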
[20] = molecular target: MAP kinase-activated protein kinase 3 (Homo sapiens, UniProt Q16644); format: functional;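 further: value comes from a kinome-wide profiling panel in which MAPKAPK3 is one of the panel members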
[21] = molecular target: Cyclin-dependent kinase 5 (Homo sapiens, UniProt Q00535); format: functional;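 further: CDK5 measured as one member of a kinase profiling panel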
Sequence of Cyclin-dependent kinase 5 (Q00535 whole entry): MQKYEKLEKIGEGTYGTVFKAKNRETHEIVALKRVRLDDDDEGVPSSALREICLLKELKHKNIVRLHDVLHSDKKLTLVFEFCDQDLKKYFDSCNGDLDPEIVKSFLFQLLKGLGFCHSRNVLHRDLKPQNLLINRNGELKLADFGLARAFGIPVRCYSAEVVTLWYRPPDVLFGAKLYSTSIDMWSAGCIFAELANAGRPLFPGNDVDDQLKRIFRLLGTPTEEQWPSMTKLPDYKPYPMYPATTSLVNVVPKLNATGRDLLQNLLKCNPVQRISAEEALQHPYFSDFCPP

[22] = molecular target: Fibroblast growth factor receptor 3 (Homo sapiens, UniProt P22607); format: functional
[23] = molecular target: Phosphorylase b kinase gamma catalytic chain, liver/testis isoform (Homo sapiens, UniProt P15735); format: functional;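 further: PHKG2 measured as one member of a kinome-wide kinase panel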
Sequence of Phosphorylase b kinase gamma catalytic chain, liver/testis isoform (P15735 whole entry, canonical isoform): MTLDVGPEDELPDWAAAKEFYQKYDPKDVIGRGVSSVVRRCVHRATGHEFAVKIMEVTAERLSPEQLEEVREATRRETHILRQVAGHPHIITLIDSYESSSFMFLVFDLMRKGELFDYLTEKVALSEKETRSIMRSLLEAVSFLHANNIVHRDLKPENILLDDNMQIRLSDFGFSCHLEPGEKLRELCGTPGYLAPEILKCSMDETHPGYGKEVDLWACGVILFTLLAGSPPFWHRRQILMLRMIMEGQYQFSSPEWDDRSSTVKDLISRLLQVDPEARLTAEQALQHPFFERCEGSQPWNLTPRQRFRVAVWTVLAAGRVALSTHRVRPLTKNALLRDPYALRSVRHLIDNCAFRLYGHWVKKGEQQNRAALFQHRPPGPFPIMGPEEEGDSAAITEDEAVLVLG

[24] = molecular target: Ribosomal protein S6 kinase beta-1 (Homo sapiens, UniProt P23443); format: functional;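 further: measured as one member of a kinome-wide profiling panel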
[25] = molecular target: Serine/threonine-protein kinase Chk1 (Homo sapiens, UniProt O14757); format: functional;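 further: measured as one member of a kinome-wide kinase profiling panel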
[26] = molecular target: cAMP-dependent protein kinase catalytic subunit PRKX (Homo sapiens, UniProt P51817); format: functional
Sequence of cAMP-dependent protein kinase catalytic subunit PRKX (P51817 whole entry): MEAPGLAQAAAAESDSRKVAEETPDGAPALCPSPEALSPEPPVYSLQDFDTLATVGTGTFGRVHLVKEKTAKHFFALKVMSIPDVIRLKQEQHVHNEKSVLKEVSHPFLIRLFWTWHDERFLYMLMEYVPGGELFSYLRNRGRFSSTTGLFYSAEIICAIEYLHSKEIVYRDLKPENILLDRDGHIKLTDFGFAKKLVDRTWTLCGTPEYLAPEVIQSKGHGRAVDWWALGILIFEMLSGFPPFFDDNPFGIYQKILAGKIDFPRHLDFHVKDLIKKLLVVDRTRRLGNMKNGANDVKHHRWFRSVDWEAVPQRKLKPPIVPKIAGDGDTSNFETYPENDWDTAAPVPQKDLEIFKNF

[27] = molecular target: Bifunctional protein GlmU (Mycobacterium tuberculosis, UniProt P9WMN3); assay: Inhibitors of Mycobacterial Glucosamine-1-phosphate acetyl transferase (GlmU). Secondary screen.; parameters: species or system Mycobacterium tuberculosis H37Rv

C=CCNC1=C(Cl)C(=O)c2ccccc2C1=O
active: AC50 [1] 53500 nM | AC50 [2] 4060 nM | AC50 [3] 50400 nM | AC50 [4] 3820 nM

CN(C)c1ccc(-c2nnc(-c3cccs3)o2)cc1
inactive: IC50 (Orexin receptor type 2) > 88800 nM

CCOC(=O)C(C(=O)OCC)c1cc(Br)c2noc3c2c1C(=O)c1ccccc1-3
active: EC50 [5] 10200 nM | EC50 [6] 3060 nM

COc1ccc(C(=O)Nc2n[nH]c3ccc(-c4cn(Cc5ccccc5)nn4)cc23)cc1OC
inactive: Ki [8] > 5010 nM | Ki (Focal adhesion kinase 1) > 6310 nM | Ki [17] > 7940 nM | Ki [18] > 6310 nM | Ki [20] > 10000 nM
active: Ki (Insulin receptor) 1260 nM | Ki [7] 1000 nM | Ki (SRSF protein kinase 1) 1580 nM | Ki [9] 25.1 nM | Ki [10] 501 nM | Ki [11] 5010 nM | Ki [12] 126 nM | Ki [13] 1580 nM | Ki [14] 501 nM | Ki [15] 1260 nM | Ki [16] 398 nM | Ki [19] 398 nM | Ki [21] 12.6 nM | Ki [22] 158 nM | Ki [23] 316 nM | Ki [24] 100 nM | Ki [25] 3980 nM | Ki [26] 50.1 nM

CS(=O)(=O)c1ccc2c(c1)SC1=NC(=O)/C(=C/c3ccc(O)c(O)c3)C(=N)N12
active: IC50 [27] 159000 nM
